The results in this text go back to US20100010037A1, “1H-PYRROLO[2,3-B]PYRIDINE DERIVATIVES USEFUL AS HSP90 INHIBITORS” (VERNALIS (R&D) LTD., priority 2006, published 2010).

One may read the IC50 as the concentration needed to halve the response being measured.

T1 sequence (P08238 whole entry): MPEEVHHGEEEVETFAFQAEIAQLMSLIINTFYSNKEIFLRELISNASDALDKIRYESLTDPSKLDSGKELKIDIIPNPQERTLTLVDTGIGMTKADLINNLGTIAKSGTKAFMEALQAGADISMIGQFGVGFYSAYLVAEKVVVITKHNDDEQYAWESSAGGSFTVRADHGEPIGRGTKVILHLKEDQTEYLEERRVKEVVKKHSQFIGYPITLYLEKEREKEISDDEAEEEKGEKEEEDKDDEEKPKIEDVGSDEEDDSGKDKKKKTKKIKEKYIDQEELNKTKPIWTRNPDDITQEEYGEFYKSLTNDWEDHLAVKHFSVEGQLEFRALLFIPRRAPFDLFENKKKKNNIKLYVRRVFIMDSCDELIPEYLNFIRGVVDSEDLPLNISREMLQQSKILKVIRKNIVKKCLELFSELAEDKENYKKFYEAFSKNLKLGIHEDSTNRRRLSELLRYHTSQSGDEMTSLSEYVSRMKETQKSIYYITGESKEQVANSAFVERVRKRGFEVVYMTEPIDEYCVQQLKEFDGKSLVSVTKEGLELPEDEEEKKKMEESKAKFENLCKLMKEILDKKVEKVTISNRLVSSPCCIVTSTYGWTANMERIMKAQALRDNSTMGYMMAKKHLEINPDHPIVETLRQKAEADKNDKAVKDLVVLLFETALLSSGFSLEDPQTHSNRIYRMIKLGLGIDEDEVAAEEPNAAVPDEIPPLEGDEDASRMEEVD

Tested on in one test: not listed separately
Kind of test: Growth inhibition assay: cytotoxicity by sulforhodamine B (SRB) assay. The test is classed as cell-based. The note with it: SRB stain, absorbance at 540 nm; cell line not named. Here is the method:
A growth inhibition assay was also employed for the evaluation of candidate HSP90 inhibitors:
Assessment of Cytotoxicity by Sulforhodamine B (SRB) Assay: Calculation of 50% Inhibitory Concentration (IC50).
Day 1 • 1) Determine cell number by haemocytometer. • 2) Using an 8 channel multipipettor, add 160 μl of the cell suspension (3600 cells/well or 2×10^4 cells/ml) to each well of a 96-well microtitre plate. • 3) Incubate overnight at 37° C. in a CO2 incubator. […]
Day 6 • 8) Tip off medium into sink and immerse plate slowly into 10% ice cold trichloroacetic acid (TCA). […] Leave for 15 mins. • 12) Wash off unbound SRB stain with four washes of 1% acetic acid. • 13) Dry plates in incubator. • 14) Solubilise SRB using 100 μl of 10 mM Tris base and put plates on plate shaker for 5 mins. • 15) Determine absorbance at 540 nm using a plate reader. Calculate mean absorbance for quadruplicate wells and express as a percentage of value for control, untreated wells. • 16) Plot % absorbance values versus log drug concentration and determine the IC50.
With `COc1cc(-c2cc(Cl)nc3[nH]cc(C#N)c23)c(Cl)cc1Cl` [Example 5, 6-Chloro-4-(2,4-dichloro-5-methoxy-phenyl)-1H-pyrrolo[2,3-b]pyridine-3-carbonitrile], the IC50 is below 50000 nM.

A further test addresses T1, human full-length HSP90 (Homo sapiens, UniProt P08238).
T1 construct: E. coli expressed human full-length HSP90 protein; made in house; host or cells: E. coli
Description: Fluorescence polarization assay (competitive displacement of fluorescein-labelled probe from HSP90). The test is classed as binding. The note with it: human full-length HSP90 200 nM, probe 80 nM; read-out: FP IC50 (activity in the fluorescence polarization assay). An excerpt: Fluorescence Polarization Assay
Fluorescence polarization {also known as fluorescence anisotropy} measures the rotation of a fluorescing species in solution, where the larger molecule the more polarized the fluorescence emission. When the fluorophore is excited with polarized light, the emitted light is also polarized. The molecular size is proportional to the polarization of the fluorescence emission.
The fluoroscein-labelled probe—
binds to HSP90 {full-length human, full-length yeast or N-terminal domain HSP90} and the anisotropy {rotation of the probe:protein complex} is measured.
Test compound is added to the assay plate, left to equilibrate and the anisotropy measured again. Any change in anisotropy is due to competitive binding of compound to HSP90, thereby releasing probe.
Chemicals are of the highest purity commercially available and all aqueous solutions are made up in AR water. • 1) Costar 96-well black assay plate #3915 • 2) Assay buffer of (a)100 mM Tris pH7.4; (b) 20 mM KCl; (c) 6 mM MgCl2. Stored at room temperature. • 3) BSA (bovine serum albumen) 10 mg/ml (New England Biolabs # B9001S) • 4) 20 mM probe in 100% DMSO stock concentration. Stored in the dark at RT. Working concentration is 200 nM diluted in AR water and stored at 4° C. Final concentration in assay 80 nM. • 5) E. coli expressed human full-length HSP90 protein, purified >95% (see, e.g., Panaretou et al., 1998) and stored in 50 μL aliquots at −80° C.
Protocol • 1) Add 100 μl 1× buffer to wells 11A and 12A (=FP BLNK) • 2) Prepare assay mix—all reagents are kept on ice with a lid on the bucket as the probe is light-sensitive.
• 3) Aliquot 100 μl assay mix to all other wells • 4) Seal plate and leave in dark at room temp for 20 minutes to equilibrate
Compound Dilution Plate—1×3 dilution series • 1) In a clear 96-well v-bottom plate—{# VWR 007/008/257} add 10 μl 100% DMSO to wells B1 to H11 • 2) To wells A1 to A11 add 17.5 μl 100% DMSO • 3) Add 2.5 μl cpd to A1. This gives 2.5 mM {50×} stock cpd—assuming cpds 20 mM. • 4) Repeat for wells A2 to A10. Control in columns 11 and 12. • 5) Transfer 5 μl from row A to row B—not column 12. Mix well. • 6) Transfer 5 μl from row B to row C. […] In column 11 {provides standard curve} only add compound B11-H11. Add 2 μl of 100 mM standard cpd to wells B12-H12 {is positive control} • 13) The Z′ factor is calculated from zero controls and positive wells. It typically gives a value of 0.7-0.9.
On the technique in general: Polarisation of emitted light reports the rotation of a fluorescent probe.
Turning to `Cc1ccc(-c2ccnc3[nH]cc(C#N)c23)c(C)c1` [Example 1, 4-(2,4-Dimethyl-phenyl)-1H-pyrrolo[2,3-b]pyridine-3-carbonitrile], the half-maximal inhibitory concentration (IC50) was below 1000 nM.

With `N#Cc1c[nH]c2nc(Cl)cc(-c3cccc(O)c3)c12` [Example 14, 6-Chloro-4-(3-hydroxy-phenyl)-1H-pyrrolo[2,3-b]pyridine-3-carbonitrile], the 50% inhibitory concentration (IC50) was below 1000 nM.

`COc1cc(-c2ccccc2)c2c(C#N)c[nH]c2n1` [Example 15, 6-methoxy-4-(-phenyl)-1H-pyrrolo[2,3-b]pyridine-3-carbonitrile]: the IC50 was below 1000 nM.

`CCN(CC)CCOc1cccc(-c2ccnc3[nH]cc(C#N)c23)c1` [Example 13, 4-[3-(2-Diethylamino-ethoxy)-phenyl]-1H-pyrrolo[2,3-b]pyridine-3-carbonitrile]: the IC50 is 1000 to 10000 nM.

Take `N#Cc1c[nH]c2nccc(-c3ccc(Cl)cc3Cl)c12` [Example 2, 4-(2,4-Dichloro-phenyl)-1H-pyrrolo[2,3-b]pyridine-3-carbonitrile]: the half-inhibitory concentration (IC50) was below 1000 nM.

Consider `N#Cc1c[nH]c2nccc(-c3cccc(O)c3)c12` [Example 12, 4-(3-Hydroxy-phenyl)-1H-pyrrolo[2,3-b]pyridine-3-carbonitrile], for which the IC50 lay in the range of 1000 to 10000 nM.

As for `Cc1ccc(-c2ccnc3[nH]cc(Br)c23)c(C)c1` [Example 6], the IC50 fell in the range of 1000 to 10000 nM.

For `N#Cc1c[nH]c2nc(OCCCN3CCCCC3)cc(-c3ccc(Cl)cc3Cl)c12` [Example 11, 4-(2,4-Dichloro-phenyl)-6-(3-piperidin-1-yl-propoxy)-1H-pyrrolo[2,3-b]pyridine-3-carbonitrile], the IC50 lay in the range of 1000 to 10000 nM.

Consider `CCN(CC)CCOc1cc(-c2ccccc2)c2c(C#N)c[nH]c2n1` [Example 9, 6-(2-Diethylamino-ethoxy)-4-phenyl-1H-pyrrolo[2,3-b]pyridine-3-carbonitrile], for which the IC50 was above 10000 nM.

In the case of `Cc1ccc(-c2ccnc3[nH]cc(C=O)c23)c(C)c1` [Example 7, 4-(2,4-Dimethyl-phenyl)-1H-pyrrolo[2,3-b]pyridine-3-carbaldehyde], the IC50 was below 1000 nM.

Consider `CCN(CC)CCOc1cc(-c2ccc(Cl)cc2Cl)c2c(C#N)c[nH]c2n1` [Example 10, 4-(2,4-Dichloro-phenyl)-6-(2-diethylamino-ethoxy)-1H-pyrrolo[2,3-b]pyridine-3-carbonitrile], for which the IC50 was 1000 to 10000 nM.

Consider `COc1cc(-c2cc(Cl)nc3[nH]cc(C#N)c23)c(Cl)cc1Cl` [Example 5, 6-Chloro-4-(2,4-dichloro-5-methoxy-phenyl)-1H-pyrrolo[2,3-b]pyridine-3-carbonitrile], for which the IC50 is below 1000 nM.

Turning to `N#Cc1c[nH]c2nc(Cl)cc(-c3ccc(Cl)cc3Cl)c12` [Example 3, 6-Chloro-4-(2,4-dichloro-phenyl)-1H-pyrrolo[2,3-b]pyridine-3-carbonitrile], the IC50 was below 1000 nM.

Regarding `COc1cc(-c2ccnc3[nH]cc(C#N)c23)c(Cl)cc1Cl` [Example 4, 4-(2,4-Dichloro-5-methoxy-phenyl)-1H-pyrrolo[2,3-b]pyridine-3-carbonitrile], the half-inhibitory concentration (IC50) is below 1000 nM.
